Structures can show the parent of a compound that is named as a salt.

Assay type in all cases: physicochemical
Data set [1] can be described thus: Acid-base equilibrium (pKa values) of olopatadine. The source says: Olopatadine has both a carboxylic functional group (pKa1 = 4.18) and a tertiary amino group (pKa2 = 9.79). It exists in different ionic forms depending upon the pH of the solution. Olopatadine exists predominantly as a zwitterion in the pH range between the two pKa values with a negatively-charged carboxylic group and a positively-charged tertiary amino group. The isoelectric point of the olopatadine zwitterion is at pH 6.99. At a pH lower than pKa1, cationic olopatadine (with ionized tertiary amino group) is dominant. At a pH higher than pKa2, anionic olopatadine (with ionized carboxylic group) is dominant.

Data set [2] in a line: Dissolution rate of olopatadine hydrochloride in water, effect of NaCl and Na2HPO4. How it is done: The effect of NaCl on the dissolution rate of olopatadine hydrochloride in water was determined.
The nature of data set [3]: Visual observation of composition clarity during compounding. On the procedure:
An exemplary compounding procedure for the nasal composition shown in Table 1 is described as below. • 1. Tare a suitable compounding vessel with magnetic stir bar. Add approximately 80% of the batch weight of purified water. • 2. While stirring, add dibasic sodium phosphate (anhydrous), sodium chloride, edetate disodium, benzalkonium chloride and olopatadine HCl. • 3. Add equivalent to approximately 0.55 g, 6N hydrochloric acid per 100 ml batch. • 4. Allow adequate time between each addition for dissolution of each ingredient • 5. Add purified water to approximately 90% of final batch weight. • 6. Measure pH and adjust, if necessary, to 3.7 with 6N (and/or 1N) hydrochloric acid and 1N sodium hydroxide. • 7. Adjust to final batch weight with purified water (QS). • 8. Measure final pH. • 9. Filter through 0.2 µm filtration membrane. The two compositions shown in Table 2 below were prepared using the procedure described in Example 1 and visual observations of the compositions clarity were made at different points during the compounding procedure. […] In each case, visual observations relating to the composition's clarity were recorded. […] Visual observations of the clarity of each composition were recorded as each composition was prepared.

The nature of data set [4]: Dissolution rate of olopatadine hydrochloride in a nasal formulation containing 0.01% EDTA and 0.01% BAC, effect of NaCl and Na2HPO4 concentrations. On the procedure: The effect of NaCl and Na2HPO4 concentrations on the dissolution rate of olopatadine hydrochloride in a nasal formulation containing 0.01% EDTA and 0.01% BAC was determined. The aqueous solubility of olopatadine HCl decreases with increasing concentration of NaCl. However, increasing phosphate buffer correlates with increased aqueous solubility of olopatadine HCl in the presence of NaCl.

Regarding `CN(C)CC/C=C1/c2ccccc2COc2ccc(CC(=O)O)cc21` [olopatadine, Z-11-(3-dimethylaminopropylidene)-6, 11-dihydrodibenz[b,e]oxepine-2-acetic acid], in data set [1] (carboxylic functional group), the pKa1 turned out to be 4.18. For the same compound, in data set [1] (given as pH), the “isoelectric point of the olopatadine zwitterion” value stood at 6.99. In data set [1] (tertiary amino group), this compound displayed a pKa2 of 9.79. Also, the “effect of NaCl on the rate of dissolution” value in data set [2] (in water) is listed as “significant reduction”. The “effect of addition of Na2HPO4 on dissolution” value in data set [2] (in water with NaCl) is “dramatically improved”. The “time for complete dissolution of 0.6% olopatadine solution” value is reported as “less than one” in data set [2] (in water with NaCl, with Na2HPO4) and “at least several hours” in data set [2] (in water with NaCl, without Na2HPO4, assuming the entire amount would eventually dissolve).

For the compound `CN(C)CC/C=C1/c2ccccc2COc2ccc(CC(=O)O)cc21` [olopatadine HCl, (Z)-11-(3-dimethylaminopropylidene)-6,11-dihydro-dibenz-[b,e]oxepin-2-acetic acid], the “solubility of 0.665% olopatadine hydrochloride in the tested nasal vehicle” value in data set [3] (without a phosphate salt) is “not soluble”. Besides, in data set [3] (without phosphate buffer, in the presence of 0.7% NaCl, pH as low as 3.6, compounding procedure of Example 1), the “dissolution of 0.665% olopatadine hydrochloride in water” value was “did not completely dissolve”. Also, the aqueous solubility result in data set [4] (with increasing concentration of NaCl) is given as “decreases”; in data set [4] (with increasing phosphate buffer, in the presence of NaCl) it was “increased”.

The values are drawn from EP2977042B1, “OLOPATADINE FORMULATIONS FOR TOPICAL NASAL ADMINISTRATION” (Novartis AG, priority 2007, dated 2008).
